Test system: catfish diagnosed as having PGD (proliferative gill disease)
Experiment: treatment of rearing pond containing catfish diseased with PGD
Format: in vivo
Protocol: In order to effect these concentrations in the tank or pond where the diseased fish are contained the concentrated solution of Chloramine-T is prepared for using the correct amount of Chloramine-T for the volume of water which is contained in the tank or pond where the diseased fish reside. This concentrated solution is then spread evenly over the surface of the pond or tank via the use of a chemical boat. In order to aid mixing aeration equipment is run one hour before the application and 35 hours after the application.
1. A pond of 17 acres, 4.5 feet deep holding approximately 2 million catfish contained approximately 76.5 acre feet of water. […] […] Upon examination the whole fish population was diagnosed as having PGD in various stages with some of the fish dying. 411.57 pounds of Chloramine-T was dissolved in 50 gallons of water contained in a tank on a chemical boat, as the boat moved over the pond the Chloramine-T was applied evenly over the surface of the pond.

[1] = Example 1, catfish 2 to 4 inches, 2 ppm, after 72 hours
[2] = Example 2, catfish 6 to 9 inches, 2 ppm, after 72 hours
[3] = Example 3, catfish 1 to 1.25 pounds, 2 ppm, after 72 hours
[4] = Example 4, catfish 8 to 11 inches, 2 ppm, after 72 hours
[5] = Example 5, catfish 8 to 11 inches, 1.5 ppm, after 72 hours

Cc1ccc(S(=O)(=O)NCl)cc1.[Na] [Chloramine-T, N-Sodium, N-chloro-para-toluenesulfonamide]
death rate of the fish (Example 1, catfish 2 to 4 inches, approx. 2 million, 2 ppm in pond, 24 hours after application): substantially decreased | death rate of the fish (Example 1, catfish 2 to 4 inches, 2 ppm, after 48 hours): further decreased | PGD status upon examination of the fish population [1]: in remission | death of fish [1]: essentially stopped | PGD status upon examination of the fish population (Example 1, catfish 2 to 4 inches, 2 ppm, after 96 hours): free of PGD | death rate of the fish (Example 2, catfish 6 to 9 inches, approx. 1 million, 2 ppm in pond, 24 hours after application): substantially decreased | death rate of the fish (Example 2, catfish 6 to 9 inches, 2 ppm, after 48 hours): further decreased | PGD status upon examination of the fish population [2]: in remission | death of fish [2]: essentially stopped | PGD status upon examination of the fish population (Example 2, catfish 6 to 9 inches, 2 ppm, after 96 hours): free of PGD | death rate of the fish (Example 3, catfish 1 to 1.25 pounds, approx. 125,000, 2 ppm in pond, 24 hours after application): substantially decreased | death rate of the fish (Example 3, catfish 1 to 1.25 pounds, 2 ppm, after 48 hours): further decreased | PGD status upon examination of the fish population [3]: in remission | death of fish [3]: essentially stopped | PGD status upon examination of the fish population (Example 3, catfish 1 to 1.25 pounds, 2 ppm, after 96 hours): free of PGD | death rate of the fish (Example 4, catfish 8 to 11 inches, approx. 700,000, 2 ppm in pond, 24 hours after application): substantially decreased | death rate of the fish (Example 4, catfish 8 to 11 inches, 2 ppm, after 48 hours): further decreased | PGD status upon examination of the fish population [4]: in remission | death of fish [4]: essentially stopped | PGD status upon examination of the fish population (Example 4, catfish 8 to 11 inches, 2 ppm, after 96 hours): free of PGD | death rate of the fish (Example 5, catfish 8 to 11 inches, approx. 700,000, 1.5 ppm in pond, 24 hours after application): no decrease | death rate of the fish (Example 5, catfish 8 to 11 inches, 1.5 ppm, after 48 hours): not decreased | PGD status upon examination of the fish population [5]: continued unabated | death of fish [5]: continued | PGD status upon examination of the fish population (Example 5, catfish 8 to 11 inches, 1.5 ppm, after 96 hours): continued to die and be afflicted with PGD | survival of the diseased fish (Example 6, catfish 8 to 11 inches, approx. 450,000, 387 pounds in 48 acre feet, printed 1.5 ppm, 24 hours after application): all of the fish were dead | control of PGD in diseased catfish (summary of Examples 1 through 6) (concentrations of less than 2 ppm): ineffective | toxicity to diseased catfish (summary of Examples 1 through 6) (concentrations of more than 3 ppm): kill the diseased catfish | control of PGD in diseased catfish (summary of Examples 1 through 6) (use in accordance with the process of the invention (2 to 3 ppm)): eliminates PGD
